# From patent US8119655B2, “Kinase inhibitors” (Takeda Pharmaceutical Company Limited, priority 2005, dated 2012)
# Target: T1, AIK (Homo sapiens, UniProt O14965)
# T1 sequence (O14965 1-403): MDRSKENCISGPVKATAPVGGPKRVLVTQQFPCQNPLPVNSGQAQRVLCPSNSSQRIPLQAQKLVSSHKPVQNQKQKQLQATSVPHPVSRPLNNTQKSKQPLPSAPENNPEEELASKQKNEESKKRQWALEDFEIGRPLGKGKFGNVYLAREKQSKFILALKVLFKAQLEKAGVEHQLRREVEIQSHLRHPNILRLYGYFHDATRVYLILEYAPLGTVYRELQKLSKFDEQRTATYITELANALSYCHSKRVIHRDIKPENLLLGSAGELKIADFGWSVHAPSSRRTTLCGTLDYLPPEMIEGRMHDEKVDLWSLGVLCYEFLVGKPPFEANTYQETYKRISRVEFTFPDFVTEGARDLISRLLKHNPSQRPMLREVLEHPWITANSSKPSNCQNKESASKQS
# Test: Determination of inhibition of AIK by direct fluorescence polarization (IMAP)
# Type: biochemical
# Conditions: FP assay, 2.5 μM ATP, 2.5 nM AIK; read-out: IC50 of Exemplified Compounds Against AIK
# Description: The inhibitory properties of compounds relative to AIK may be determined by the Direct Fluorescence Polarization detection method (FP) using a Greiner small volume black 384-well-plate format under the following reaction conditions: 50 mM Hepes pH 7.3, 10 mM MgCl2, 10 mM NaCl, 1 mM DTT, 0.01% Brij35, 100 nM Fluorescein-LRRASLG peptide (provided by SYNPEP), 5% DMSO, 2.5 μM ATP. Detection of the reaction product is performed by addition of IMAP binding reagent (Molecular Devices). Reaction product may be determined quantitatively by FP using an Analyst HT plate reader (Molecular Devices) with an excitation wavelength at 485 nm and emission at 530 nm and using a Fluorescein 505 dichroic mirror.
# The assay reaction may be initiated as follows: 2 ul of (3×) 300 nM Fl-Peptide/7.5 uM ATP was added to each well of the plate, followed by the addition of 2 ul of (3×) inhibitor (2.5 fold serial dilutions for 11 data points for each inhibitor) containing 15% DMSO. 2 ul of (3×) 7.5 nM AIK solution may be added to initiate the reaction (final enzyme concentration was 2.5 nM for AIK). The reaction mixture may then be incubated at room temperature for 45 min, and quenched and developed by addition of 20 ul of 1 to 400 diluted IMAP binding reagent in 1× proprietary IMAP binding buffer. Fluorescence polarization readings of the resulting reaction mixtures may be measured after a 60-minute incubation at room temperature.
# IC50 values may be calculated by non-linear curve fitting of the compound concentrations and fluorescent polarization values to the standard IC50 equation.
row,Compound,IC50
1,"Cc1cnc(Nc2cc(Cl)ccc2OCC2CCN(C)CC2)c(Br)c1 [Compound 174, 3-bromo-N-(5-chloro-2-((1-methylpiperidin-4-yl)methoxy)phenyl)-5-methylpyridin-2-amine]",< 20 nM
2,"Cc1cnc2[nH]c3c(C)c(C(=O)NCCN(C)C)cc(-c4cccc(NC(=O)C5CC5)c4)c3c2c1 [Compound 111, 5-(3-(cyclopropanecarboxamido)phenyl)-N-(2-(dimethylamino)ethyl)-3,8-dimethyl-9H-pyrido[2,3-b]indole-7-carboxamide]",20 to 50 nM
3,"CCS(=O)(=O)c1cccc(-c2cnc(OCC3CCN(C)CC3)c3[nH]c4ncc(C)cc4c23)c1 [Compound 53, 5-(3-Ethanesulfonyl-phenyl)-3-methyl-8-(1-methyl-piperidin-4-ylmethoxy)-9H-dipyrido[2,3-b;4′,3′-d]pyrrole]",< 20 nM
4,CCS(=O)(=O)c1cccc(-c2ccc(OC)c3[nH]c4ncc(Cl)cc4c23)c1 [Compound 217],< 20 nM
5,"CCS(=O)(=O)c1cccc(-c2ccc(OCC3CCN(C)CC3)c(I)c2)c1 [Compound 197, 4-((3′-(ethylsulfonyl)-3-iodobiphenyl-4-yloxy)methyl)-1-methylpiperidine]",< 20 nM
6,"COc1ccc(Cl)cc1Nc1ncc(C)cc1Br [Compound 154, 3-bromo-N-(5-chloro-2-methoxyphenyl)-5-methylpyridin-amine]",< 20 nM
7,CCS(=O)(=O)c1cccc(-c2cc(C(=O)NCCOCCO)c(C)c3[nH]c4ncc(C)cc4c23)c1 [Compound 110],< 20 nM
8,"CCS(=O)(=O)c1cccc(-c2ccc(C)c3[nH]c4ncccc4c23)c1 [Compound 17, 5-(3-(ethylsulfonyl)phenyl)-8-methyl-9H-pyrido[2,3-b]indole]",20 to 50 nM
9,"COc1ccc(-c2cccc(NC(C)=O)c2)c2c1[nH]c1ncc(C)cc12 [Compound 161, N-(3-(8-methoxy-3-methyl-9H-pyrido[2,3-b]indol-5-yl)phenyl)acetamide]",50 to 100 nM
10,"CCS(=O)(=O)c1cccc(-c2cc(C(=O)NCCN(C)C)c(C)c3[nH]c4ncc(C)cc4c23)c1 [Compound 87, N-(2-(dimethylamino)ethyl)-5-(3-(ethylsulfonyl)phenyl)-3,8-dimethyl-9H-pyrido[2,3-b]indole-7-carboxamide]",20 to 50 nM
11,"CCS(=O)(=O)c1cccc(-c2ccc(OCC3CCN(C)CC3)c3[nH]c4ncc(Cl)cc4c23)c1 [Compound 199, 3-chloro-5-(3-(ethylsulfonyl)phenyl)-8-((1-methylpiperidin-4-yl)methoxy)-9H-pyrido[2,3-b]indole]",20 to 50 nM
12,"CCOc1ncc(-c2cccc(S(=O)(=O)CC)c2)c2c1[nH]c1ncc(C)cc12 [Compound 50, 5-(3-Ethanesulfonyl-phenyl)-8-ethoxy-3-methyl-9H-dipyrido[2,3-b;4′,3′-d]pyrrole]",< 20 nM
13,"Cc1cnc2[nH]c3c(C)c(C(=O)NCCN(C)C)cc(Cl)c3c2c1 [Compound 120, 5-chloro-N-(2-(dimethylamino)ethyl)-3,8-dimethyl-9H-pyrido[2,3-b]indole-7-carboxamide]",> 100 nM
14,"CCS(=O)(=O)c1cccc(-c2cc(NC(=O)CCN(C)C)c(OC)c3[nH]c4ncc(C)cc4c23)c1 [Compound 240, 3-(dimethylamino)-N-(5-(3-(ethylsulfonyl)phenyl)-8-methoxy-3-methyl-9H-pyrido[2,3-b]indol-7-yl)propanamide]",20 to 50 nM
15,"CNS(=O)(=O)c1cccc(-c2ccc(C)c3[nH]c4ncc(C)cc4c23)c1 [Compound 15, 3-(3,8-dimethyl-9H-pyrido[2,3-b]indol-5-yl)-N-methylbenzenesulfonamide]",< 20 nM
16,"CCS(=O)(=O)c1cccc(-c2cnc(C#N)c3[nH]c4ncc(C)cc4c23)c1 [Compound 48, 5-(3-Ethanesulfonyl-phenyl)-3-methyl-9H-dipyrido[2,3-b;4′,3′-d]pyrrole-8-carbonitrile]",> 100 nM
17,"CCS(=O)(=O)c1cccc(-c2cnc(NCCN(C)C)c3[nH]c4ncc(C)cc4c23)c1 [Compound 41, N′-[5-(3-Ethanesulfonyl-phenyl)-3-methyl-9H-dipyrido[2,3-b;4′,3′-d]pyrrol-8-yl]-N,N-dimethyl-ethane-1,2-diamine]",50 to 100 nM
18,"Cc1cnc2[nH]c3c(OCC4CCN(C)CC4)ccc(Cl)c3c2c1 [Compound 175, 5-chloro-3-methyl-8-((1-methylpiperidin-4-yl)methoxy)-9H-pyrido[2,3-b]indole]",50 to 100 nM
19,"CCS(=O)(=O)c1cccc(-c2cc(F)c(OCCN(C)C)c3[nH]c4ncc(C)cc4c23)c1 [Compound 203, 2-(5-(3-(ethylsulfonyl)phenyl)-7-fluoro-3-methyl-9H-pyrido[2,3-b]indol-8-yloxy)-N,N-dimethylethanamine]",< 20 nM
